Marks after values point to notes of the source that are not given here.
Tests used:
indoxyl sulfate = assay: Urine indoxyl sulfate (IS) corrected by urine osmotic pressure; type: in vivo, human
Excerpt: Medical Examination, Vol. 44, No. 1, 1995, pages 79-83 by Tetsuo Aoki et al. was referred to. In addition, a urine osmotic pressure 770 mOsm/kg was converted into a reference value.
Osmotic pressure correction value (unit/500 mOsm·P)=actual measurement value×500/osmotic pressure value

p-cresyl sulfate = assay: Human clinical trial in CKD patients: p-cresyl sulfate in plasma and early morning urine (LC-MS/MS); type: in vivo; parameters: key to Influence on concentration of PCS / Influence on PCS U/P ratio: Excellent effects: ◯; Poor effects: X; No significant difference: —; (◯): whether or not there is an effect of promoting excretion of indoxyl sulfate into the urine cannot be determined
Experimental: (§1) 1. […] Patients were assigned to each group so that age, sex, presence of diabetes, and eGFR were not biased. Each group was treated according to the “CKD medical care guide-summary of treatment” (hereinafter referred to as standard treatment).
(§2) An alkalinizing agent was not administered to the control group. […] A pH of early morning urine was controlled over time so that the dosage could be increased up to 6 tablets, 3 times a day (morning, noon, evening) as needed according to the discretion of the physician in cases where a pH of early morning urine was less than pH 6.5. To the group B, 3 tablets a day in which each tablet contained 500 mg of sodium bicarbonate were orally administered 3 times a day (morning, noon, evening) for 24 weeks. A pH of early morning urine was controlled over time so that the dosage could be increased up to 6 tablets, 3 times a day (morning, noon, evening) as needed according to the discretion of the physician in cases where a pH of early morning urine was less than pH 6.5.
(§3) Early morning urine and blood were collected before the start of administration, and 6 weeks, 12 weeks, and 24 weeks after the start of administration, and each specimen was stored at −80° C. Methods used in the present field for indoxyl sulfate, p-cresyl sulfate, phenylacetyl-L-glutamine, hippuric acid, and argininosuccinic acid in urine and blood (Sato, E., et. al., Metabolic alteration by indoxyl sulfate in skeletal muscle induce uremic sarcopenia in chronic kidney disease., Sci Rep. 2016 Nov. 10; 6:36618. doi: 10.1038/srep36618, and the like) were referred to, and quantitative analysis was performed using the following liquid chromatography triple quadrupole mass spectrometer (LC-MS/MS).
(§4) For LC, NANOSPACE SI-2 (manufactured by Shiseido) was used, and […] MGM was selected as the analytical column.
(§5) For MS, TSQ Quantiva (manufactured by Thermo Fisher Scientific Co., Ltd.) was used, and five compounds were ionized in the negative mode and detected using the Selected Reaction Monitoring method. The quantitative value was calculated using a calibration curve prepared with a standard solution of each compound.
(§6) For statistical analysis, the Mann-Whitney test was used for comparison between groups, and the Wilcoxon test was used for comparison of changes over time. The Pearson test was used for correlation.
(§7) Then, the average value and SD of each group were calculated for (i) to (ix) above. For each of (iv) to (ix) above, the average value and SD of each group were calculated for all data of 6 weeks, 12 weeks, and 24 weeks after the start of administration in each group.

phenylacetyl-L-glutamine = assay: Human clinical trial in CKD patients: phenylacetyl-L-glutamine in plasma and early morning urine (LC-MS/MS); type: in vivo; parameters: key to Influence on concentration of PAG / Influence on PAG U/P ratio: Excellent effects: ◯; Poor effects: X; No significant difference: —; (◯): whether or not there is an effect of promoting excretion of indoxyl sulfate into the urine cannot be determined
Experimental: as §1, §2, §3, §4, §5, §6, §7

hippuric acid = assay: Urine hippuric acid (HA) corrected by urinary specific gravity; type: in vivo, human
Excerpt: Medical Examination, Vol. 44, No. 1, 1995, pages 79-83 by Tetsuo Aoki et al. was referred to. A urinary specific gravity 1.022 was converted into a reference value.
Specific gravity correction value (unit/1.022·UG)=actual measurement value×(1.022−1.000)/(specific gravity value−1.000)

[1] = 0 W, before the start of administration
[2] = 6-24 W, all data of 6, 12 and 24 weeks
[3] = Plasma, comparison with reference drug
[4] = Urine, comparison with reference drug
[5] = compared to before administration

O=C([O-])O.[Na+] [Bicarbonate, sodium bicarbonate]
Urine IS, osmotic pressure corrected (indoxyl sulfate; 0 W): 87.9 ± 40.0 μg · mL^−1/770 mOsm · P
Urine IS, osmotic pressure corrected (indoxyl sulfate; 6-24 W, all data): 77.0 ± 42.5 μg · mL^−1/770 mOsm · P
Urine IS, osmotic pressure corrected, % Relative value vs week 0 (indoxyl sulfate; 6-24 W, all data): 93 ± 49%
Urine IS, osmotic pressure corrected (indoxyl sulfate; 6 W): 82.9 ± 44.6 μg · mL^−1/770 mOsm · P
Urine IS, osmotic pressure corrected, % Relative value vs week 0 (indoxyl sulfate; 6 W): 98 ± 30%
Urine IS, osmotic pressure corrected, % Relative value vs week 0 (indoxyl sulfate; 12 W): 77 ± 39%
Urine IS, osmotic pressure corrected (indoxyl sulfate; 24 W): 84.4 ± 48.4 μg · mL^−1/770 mOsm · P
Urine IS, osmotic pressure corrected, % Relative value vs week 0 (indoxyl sulfate; 24 W): 104 ± 68%
Plasma p-Cresyl Sulfate (p-cresyl sulfate; [1]): 5402 ± 5209 ng/mL
Urine p-Cresyl Sulfate (early morning urine) (p-cresyl sulfate; [1]): 66164 ± 97704 ng/mL
p-Cresyl Sulfate-Urine/Plasma ratio (p-cresyl sulfate; [1]): 15.6 ± 11.1
Plasma p-Cresyl Sulfate (p-cresyl sulfate; [2]): 4187 ± 4354 ng/mL
Plasma p-Cresyl Sulfate, change from week 0 (p-cresyl sulfate; [2]): -1038 ± 2773 ng/mL
Urine p-Cresyl Sulfate (early morning urine) (p-cresyl sulfate; [2]): 52501 ± 73583 ng/mL
Urine p-Cresyl Sulfate, change from week 0 (p-cresyl sulfate; [2]): -13663 ± 74566 ng/mL
p-Cresyl Sulfate-Urine/Plasma ratio (p-cresyl sulfate; [2]): 16.8 ± 13.9 ^d
p-Cresyl Sulfate-Urine/Plasma ratio, change from week 0 (p-cresyl sulfate; [2]): 1.20 ± 11.45
Plasma p-Cresyl Sulfate (p-cresyl sulfate; 6 W): 4506 ± 5300 ng/mL
Plasma p-Cresyl Sulfate, change from week 0 (p-cresyl sulfate; 6 W): -895.9 ± 2153 ng/mL
Urine p-Cresyl Sulfate (early morning urine) (p-cresyl sulfate; 6 W): 67744 ± 105548 ng/mL
Urine p-Cresyl Sulfate, change from week 0 (p-cresyl sulfate; 6 W): 1580 ± 51468 ng/mL
p-Cresyl Sulfate-Urine/Plasma ratio (p-cresyl sulfate; 6 W): 17.0 ± 12.0
p-Cresyl Sulfate-Urine/Plasma ratio, change from week 0 (p-cresyl sulfate; 6 W): 1.39 ± 8.25
Plasma p-Cresyl Sulfate (p-cresyl sulfate; 12 W): 3771 ± 4139 ng/mL
Plasma p-Cresyl Sulfate, change from week 0 (p-cresyl sulfate; 12 W): -1103 ± 2478 ng/mL
Urine p-Cresyl Sulfate (early morning urine) (p-cresyl sulfate; 12 W): 37730 ± 48411 ng/mL
Urine p-Cresyl Sulfate, change from week 0 (p-cresyl sulfate; 12 W): -28434 ± 72253 ng/mL
p-Cresyl Sulfate-Urine/Plasma ratio (p-cresyl sulfate; 12 W): 16.5 ± 17.9
p-Cresyl Sulfate-Urine/Plasma ratio, change from week 0 (p-cresyl sulfate; 12 W): 0.91 ± 15.68
Plasma p-Cresyl Sulfate (p-cresyl sulfate; 24 W): 4284 ± 3682 ng/mL
Plasma p-Cresyl Sulfate, change from week 0 (p-cresyl sulfate; 24 W): -1119 ± 3631 ng/mL
Urine p-Cresyl Sulfate (early morning urine) (p-cresyl sulfate; 24 W): 52029 ± 57779 ng/mL
Urine p-Cresyl Sulfate, change from week 0 (p-cresyl sulfate; 24 W): -14163 ± 95244 ng/mL
p-Cresyl Sulfate-Urine/Plasma ratio (p-cresyl sulfate; 24 W): 17.0 ± 11.8 ^c
p-Cresyl Sulfate-Urine/Plasma ratio, change from week 0 (p-cresyl sulfate; 24 W): 1.31 ± 9.81
Influence on concentration of PCS (p-cresyl sulfate; Plasma, comparison with Cont): —
Influence on concentration of PCS (p-cresyl sulfate; [3]): ◯
Influence on PCS U/P ratio (p-cresyl sulfate; comparison with Cont): ◯
Influence on PCS U/P ratio (p-cresyl sulfate; comparison with reference drug): —
Influence on concentration of PCS (p-cresyl sulfate; Urine, comparison with Cont): —
Influence on concentration of PCS (p-cresyl sulfate; [4]): X
concentration of p-cresyl sulfate in plasma (p-cresyl sulfate; [5]): decreased
concentration of p-cresyl sulfate in urine (p-cresyl sulfate; [5]): such an effect was not recognized
Phenyl Acetyl L-Glutamine (PAG)-Urine/Plasma ratio (phenylacetyl-L-glutamine; [1]): 102.2 ± 96.5
Plasma Phenyl Acetyl L-Glutamine (PAG) (phenylacetyl-L-glutamine; [1]): 1324 ± 949 ng/mL
Urine Phenyl Acetyl L-Glutamine (PAG) (early morning urine) (phenylacetyl-L-glutamine; [1]): 124676 ± 149757 ng/mL
PAG - Urine/Plasma ratio, change from week 0 (phenylacetyl-L-glutamine; [2]): −14.9 ± 95.3
Phenyl Acetyl L-Glutamine (PAG)-Urine/Plasma ratio (phenylacetyl-L-glutamine; [2]): 87.3 ± 86.2
Plasma PAG, change from week 0 (phenylacetyl-L-glutamine; [2]): -98.6 ± 688.1 ng/mL
Plasma Phenyl Acetyl L-Glutamine (PAG) (phenylacetyl-L-glutamine; [2]): 1226 ± 983 ng/mL
Urine PAG, change from week 0 (phenylacetyl-L-glutamine; [2]): -13663 ± 74566 ng/mL
Urine Phenyl Acetyl L-Glutamine (PAG) (early morning urine) (phenylacetyl-L-glutamine; [2]): 109378 ± 163923 ng/mL
PAG - Urine/Plasma ratio, change from week 0 (phenylacetyl-L-glutamine; 6 W): −8.5 ± 57.8
Phenyl Acetyl L-Glutamine (PAG)-Urine/Plasma ratio (phenylacetyl-L-glutamine; 6 W): 93.7 ± 84.0
Plasma PAG, change from week 0 (phenylacetyl-L-glutamine; 6 W): -84.0 ± 636.1 ng/mL
Plasma Phenyl Acetyl L-Glutamine (PAG) (phenylacetyl-L-glutamine; 6 W): 1240 ± 1062 ng/mL
Urine PAG, change from week 0 (phenylacetyl-L-glutamine; 6 W): 20077 ± 118811 ng/mL
Urine Phenyl Acetyl L-Glutamine (PAG) (early morning urine) (phenylacetyl-L-glutamine; 6 W): 144753 ± 246773 ng/mL
PAG - Urine/Plasma ratio, change from week 0 (phenylacetyl-L-glutamine; 12 W): −31.8 ± 81.8
Phenyl Acetyl L-Glutamine (PAG)-Urine/Plasma ratio (phenylacetyl-L-glutamine; 12 W): 70.4 ± 46.8
Plasma PAG, change from week 0 (phenylacetyl-L-glutamine; 12 W): -171.6 ± 896.9 ng/mL
Plasma Phenyl Acetyl L-Glutamine (PAG) (phenylacetyl-L-glutamine; 12 W): 1153 ± 1000 ng/mL
Urine PAG, change from week 0 (phenylacetyl-L-glutamine; 12 W): -42198 ± 85069 ng/mL
Urine Phenyl Acetyl L-Glutamine (PAG) (early morning urine) (phenylacetyl-L-glutamine; 12 W): 82478 ± 112943^b ng/mL
concentration of phenylacetyl-L-glutamine in urine (phenylacetyl-L-glutamine; 12 and 24 weeks after administration, compared to before administration): such an effect was not recognized
PAG - Urine/Plasma ratio, change from week 0 (phenylacetyl-L-glutamine; 24 W): −4.3 ± 133.9
Phenyl Acetyl L-Glutamine (PAG)-Urine/Plasma ratio (phenylacetyl-L-glutamine; 24 W): 97.9 ± 116.4
Plasma PAG, change from week 0 (phenylacetyl-L-glutamine; 24 W): -40.3 ± 514.7 ng/mL
Plasma Phenyl Acetyl L-Glutamine (PAG) (phenylacetyl-L-glutamine; 24 W): 1284 ± 945 ng/mL
Urine PAG, change from week 0 (phenylacetyl-L-glutamine; 24 W): -23774 ± 117957 ng/mL
Urine Phenyl Acetyl L-Glutamine (PAG) (early morning urine) (phenylacetyl-L-glutamine; 24 W): 100902 ± 91424 ng/mL
Influence on concentration of PAG (phenylacetyl-L-glutamine; Plasma, comparison with Cont): —
Influence on concentration of PAG (phenylacetyl-L-glutamine; [3]): —
Influence on PAG U/P ratio (phenylacetyl-L-glutamine; comparison with Cont): —
Influence on PAG U/P ratio (phenylacetyl-L-glutamine; comparison with reference drug): —
Influence on concentration of PAG (phenylacetyl-L-glutamine; Urine, comparison with Cont): —
Influence on concentration of PAG (phenylacetyl-L-glutamine; [4]): X
concentration of phenylacetyl-L-glutamine in plasma (decreasing effect) (phenylacetyl-L-glutamine; [5]): strongly recognized
Urine HA, specific gravity corrected (hippuric acid; 0 W): 202.3 ± 185.6 μg · mL^−1/1.022 · UG
Urine HA, specific gravity corrected (hippuric acid; 6-24 W, all data): 170.2 ± 101.6 μg · mL^−1/1.022 · UG
Urine HA, specific gravity corrected, % Relative value vs week 0 (hippuric acid; 6-24 W, all data): 118 ± 106%
Urine HA, specific gravity corrected, difference vs week 0 (hippuric acid; 6-24 W, all data): −32.1 ± 160.3 μg · mL^−1/1.022 · UG
Urine HA, specific gravity corrected (hippuric acid; 6 W): 161.8 ± 111.1 μg · mL^−1/1.022 · UG
Urine HA, specific gravity corrected, % Relative value vs week 0 (hippuric acid; 6 W): 104 ± 89%
Urine HA, specific gravity corrected, difference vs week 0 (hippuric acid; 6 W): −40.5 ± 171.7 μg · mL^−1/1.022 · UG
Urine HA, specific gravity corrected (hippuric acid; 12 W): 171.1 ± 87.0 μg · mL^−1/1.022 · UG
Urine HA, specific gravity corrected, % Relative value vs week 0 (hippuric acid; 12 W): 133 ± 134%
Urine HA, specific gravity corrected, difference vs week 0 (hippuric acid; 12 W): −31.2 ± 163.7 μg · mL^−1/1.022 · UG
Urine HA, specific gravity corrected (hippuric acid; 24 W): 177.7 ± 111.0 μg · mL^−1/1.022 · UG
Urine HA, specific gravity corrected, % Relative value vs week 0 (hippuric acid; 24 W): 118 ± 96%
Urine HA, specific gravity corrected, difference vs week 0 (hippuric acid; 24 W): −24.6 ± 155.3 μg · mL^−1/1.022 · UG

Reference: patent US20210121426A1, “BLOOD PURIFICATION BY ALKALINIZING AGENT” (TOHOKU UNIVERSITY, priority 2017, published 2021)
